The results in this text go back to patent US9403873B2, “Peptides targeting receptor activator of nuclear factor-κB (RANK) and their applications” (UNIVERSITE DE NANTES, priority 2011, dated 2016).

Series [1] has as its system ovariectomized C57BL/6 mice. The series can be described thus: Ovariectomy-induced bone loss in mice, micro-CT of tibiae and L4 vertebrae. In kind it is in vivo, mouse. The settings on record: 35 days. The text has this:
Eight-week-old ovariectomized (OVX) female C57BL6 and non-ovariectomized control mice were purchased from Janvier (Le Genest Saint Ilsle, France). Mice were housed under pathogen-free conditions at the Experimental Therapy Unit (Faculty of Medicine, University of Nantes, France), and animal care and experimental protocols were approved by the French Ministry of Research and were done in accordance with the institutional guidelines of the French Ethical Committee and under the supervision of authorized investigators. After recovery from OVX surgery for 7 days and acclimation, the mice were randomly divided into treatment groups receiving daily subcutaneous injections of a peptide and a control group receiving daily injections of the vehicle (PBS) only. Non-ovariectomized or sham-operated mice were included in the studies as healthy controls. Three experimental protocols were established. Protocol 1: Ovariectomized mice received daily s.c. injections of 10 mg/kg body weight Pep8 (Pep8, n=8) or vehicle only (OVX, n=8). Non-ovariectomized (NOV, n=8) mice served as normal controls. Protocol 2: Ovariectomized mice were randomly divided into four groups (n=8), receiving daily treatments with pegylated Pep8 (Pep8-NPEG5) at 10 mg/kg or 2.5 mg/kg, or unpegylated Pep8 at a dose of 10 mg/kg/d, or the vehicle only. Sham-operated mice (n=5) served as healthy controls. Protocol 3: Ovariectomized mice receiving daily treatments with pegylated Pep8 (Pep8-NPEG8) at 10 mg/kg or 2.5 mg/kg, as described before, or unpegylated Pep8 at a lower dose of 2.5 mg/kg/d, or the vehicle only. Sham-operated mice (n=8) served as healthy controls.
(§1) During the experimental period, the body weight of the mice was monitored. […] After treatment for five weeks, mice were anesthetized with isoflurane (2%, 1 L/min) and sacrificed by cervical dislocation. Lumbar vertebrae and tibiae were collected for micro-CT analysis and stored at 4° C. in 4% paraformaldehyde until further analysis. Additionally, internal organs (heart, liver, lungs, kidneys, spleen, intestines and thymus) of some mice (n=3 per group) were harvested and stored for toxicity screening.
Analysis of architectural variables of tibiae and vertebrae of mice was performed using the high-resolution X-ray micro-CT system for small animal imaging SkyScan-1072 (SkyScan, Belgium). After scanning, the image data were transferred to a workstation and the proximal tibiae and the fourth lumbar vertebrae (L4) were rendered for 3-D display and calculation of the structural indices (Parfitt et al. 1987) using the SkyScan analysis system (CT-analyser, CT-volume, SkyScan). For trabecular bone parameters in tibiae, transverse CT slices were obtained in the region of interest in the axial direction from the trabecular bone ca. 0.1 mm below the growth plate to the mid-femur. Contours were defined and drawn close to the cortical bone. The trabecular bone was then removed and analyzed separately. Fifty slices (1 mm) at approximately […] distal to the growth plate of the proximal ends of the tibiae were used for analysis. […] The threshold level for the measurements was set at 55 for the analyses. The analysis of the specimens involved the following bone measurements: bone volume fraction (BV/TV, %), trabecular number (TbN), trabecular thickness (TbTh) and trabecular spacing (TbSp).

In series [2] the test system is RANKL-induced signaling (Akt, p38, ERK, NF-κB) in RAW264.7 cells. The series can be described thus: Western blot of RANKL-induced signaling in RAW264.7 cells. In kind it is cell-based, murine. The method, then:
After treatment for 5, 10, 15, 30 or 60 minutes at 37° C., total cell lysates were obtained and protein concentrations were determined as described previously (Duplomb et al. 2008). For NF-κB pathway analysis, separate cytoplasmic and nuclear protein fractions were obtained using the NE-PER Nuclear and Cytoplasmic Extraction Kit (Thermo Scientific, UK). Proteins (40 μg) were run on 10% SDS—PAGE and transferred to Immobilon-P membranes (Millipore, Billerica, Mass., USA), which were then incubated with antibodies to Akt, phospho-Akt, ERK 1/2, phospho-ERK 1/2, p38, phospho-p38, IκBα, p105, p65, p50 and Rel B (Cell Signalling, Danvers, Mass., USA). The labeled proteins were detected using the ECL reagent (Pierce, Rockford, Ill., USA). β-Actin (total cell extract or cytoplasmic fraction), histone H3, and HDAC (nuclear fraction) were used as housekeeping proteins (Cell Signalling).
Murine RAW264.7 cells (ATCC) were cultured in αMEM (Invitrogen) supplemented with 10% FBS (Hyclone). Human embryonic kidney 293 cells (ATCC) were stably transduced with an expression-ready clone (Ex-00007-Lv105, OmicsLink™ Expression Clone, GeneCopoeia™) containing the ORF cDNA of RANK/TNFRSF11A. HEK-RANK cells were maintained in DMEM (Lonza), 10% FBS and 1 μg/mL puromycin.

In series [3] the test system is ovariectomized C57BL/6 mice. As to the kind of experiment: Toxicity in ovariectomized mice (body weight, organ histology). The settings on record: 10 mg/kg/day. Type of series: in vivo, mouse. The method, then: as §1
After sacrifice, organs were conserved and fixed in 4% PFA at 4° C., and embedded in paraffin. Sections (4 μm) were cut and stained with hematoxylin and eosin (Lamoureux et al. 2009, Baud′Huin et al. 2010). General morphology of organs was evaluated on each section using a DMRXA microscope (Leica, Nussloch, Germany).

Setting [4] is: 10 mg/kg/day s.c., vs vehicle-treated OVX mice.
[5] abbreviates: 50 μM, 15 minutes of RANKL treatment.

Entries after “also recorded” stand apart in the source; their conditions may differ. Ends that are not written are not given here.

Consider NVLKLCSGE [Pep8, NVLKLCSGE], for which, in series [1] (2.5 mg/kg/d s.c.), the “protection against OVX-induced trabecular bone loss (μCT, tibiae)” value is reported as “less efficient”. Also, the “trabecular BV/TV and TbN, tibiae” value in series [1] (2.5 mg/kg/d, vs vehicle) is given as “only slightly, but not significantly increasing”. For the same sequence, the “protection against OVX-induced trabecular bone loss (μCT)” value in series [1] (10 mg/kg/d s.c.) was “prevented the loss of trabecular bone; also recorded: overall increase in trabecular bone density”. In series [1] (setting [4]), the “increase of TbN, proximal tibia” value was 71%; the “increase of TbTh, proximal tibia” value is listed as 14%; the “increase of trabecular BV/TV, proximal tibia” value amounted to 93%. Further, in series [1] (10 mg/kg/day s.c., vs vehicle-treated mice), the “TbS, proximal tibia” value is “decline”. Also, in series [1] (10 mg/kg/day), the “TbN, lumbar vertebrae” value was “increased” and the “TbS, lumbar vertebrae” value is “reduced”. Moreover, the “TbTh, lumbar vertebrae” value in series [1] (10 mg/kg/day, vs OVX control mice) is reported as “slightly, but not statistically significantly increased”. For the same sequence, the “vertebral trabecular BV/TV” value in series [1] (lumbar vertebrae, 10 mg/kg/day) is reported as “lower in OVX than Pep8-treated mice”. In addition, in series [2] (50 μM), the “RANKL-induced degradation of IκBα and nuclear translocation of p50 and p65” value was “blocked”; the “expression levels of RelB in cytoplasmic and nuclear fraction” value is on record as “no effect”. Also, the “RANKL-induced Akt phosphorylation” value in series [2] (50 μM, 5 minutes of RANKL treatment) was “exhibited an inhibitory effect”. In series [2] (setting [5]), the “RANKL-induced phosphorylation of ERK” value was “inhibited phosphorylation” and the “RANKL-induced phosphorylation of p38” value is given as “inhibited phosphorylation”. The “basal phosphorylation of p38” value in series [2] (absence of RANKL stimulation) is “decreased phosphorylation of p38 even in the absence of RANKL stimulation”. Also, in series [3] (5 weeks, heart, lungs, liver, kidneys, spleen, skin), the “histopathological evaluation of major organs” value is “No histomorphological difference; also recorded: no toxic effects”. Moreover, in series [3] (35 days), the “effect on body weight in OVX mice” value is given as “no effect”.
